Here are results for one compound from patent US5852033A, “Methods of treatment using lamellarin-class alkaloids” (Pharma Mar, s.a., priority 1995, dated 1998).

As a reminder, the IC50 is the midpoint of a concentration-inhibition curve.

One test deals with P-388/SCHABEL. Nature of the test: Adriamycin toxicity to resistant cells (MDR) in presence or absence of reversing agents, P-388/SCHABEL. It counts as cell-based. The following applies: Mus musculus, P388; control, Adriamycin only, R.A. 0 μg/ml. The procedure:
(§1) Gain of Sensitivity (G.S.) = IC50 Control/IC50 R.A.
(§2) Sensitive and MDR cells were maintained, in logarithmic phase of growth, in Eagle's Minimum Essential Medium, with Earle's Balanced Salts, with non-essential amino acids, with 2.0 mM L-glutamine, without sodium bicarbonate (EMEM/neaa), supplemented with 5% Fetal Calf Serum (FCS), 10^-2 M sodium bicarbonate and 0.1 g/l penicillin G+0.1 g/l streptomycin sulfate.
(§3) This form of assay employs 96-well cell culture plates […]. Cells were seeded into wells at 1×10^3 cells per well in 100 μl aliquots of EMEM 5% FCS containing different concentrations of the corresponding lamellarins and other compounds (standards) to be tested. Two separate sets of cultures without drugs were seeded, one as control of growth to ensure that cells remained in exponential phase of growth, and another without cells as control of medium. All determinations were carried out in duplicate.
(§4) Plates were incubated for an additional 4 hours and 100 μl aliquots of isopropanol were added to each well. The broad absorption spectrum for the isopropanol solution of this crystal is optimal at 570 nm.

A further test relates to P-388/SCHABEL (MDR). Nature of the test: LAMELLARINS TOXICITY TO RESISTANT (MDR) TUMOR CELL LINE P-388/SCHABEL (MTT). It counts as cell-based. The settings on record: Mus musculus, P388, 72 h; P-388/SCHABEL (MDR), MTT, three days; read-out: ACTIVITY: IC50. The procedure:
as §2
(§5) In Vitro cell cytotoxicity was determined using the 3-[4,5-dimethylthiazol-2-yl]-2,5-dipheniltetrazolium bromide (MTT), from Sigma Ref:M-2128, for quantitative measurement of cell growth and viability. See, T. Mosmann, "Rapid Colorimetric Assay for Cellular Growth and Survival: Application to Proliferation and Cytotoxicity Assays," Journal of Immunological Methods, 65: 55-63 (1983).
(§6) The tumor cell lines employed have been: P-388 (ATCC CCL 46), suspension culture of a lymphoid neoplasm from a DBA/2 mouse and its corresponding MDR cell line P-388/SCHABEL; CHOB1 (ATCC CCL 16), monolayer culture of chinese hamster ovary and its corresponding MDR cell line CHOC5. See, Rauscher Ill, et al., "Characterization of Auromycin-Resistant Hamster Cell Mutants that Display a Multidrug Resistance Phenotype," Molecular Pharmacology, 38: 198-206 (1990).
as §3
(§7) After three days of incubation at 37° C., 10% CO2 in a 98% humid atmosphere, 150 μg of MTT is added to each well in 50 μl aliquots of assay medium. Plates were incubated for an additional 4 hours and 100 μl aliquots of isopropanol were added to each well. The broad absorption spectrum for the isopropanol solution of this crystal is optimal at 570 nm. Optical density values were obtained with the help of a Dynatech microplate reader and the results of the assay were used to generate graphics from which IC50 was calculated; i.e., wherein the IC50 is the test concentration which produces 50% cell growth inhibition.

The test system of another test is CHOC5. Nature of the test: Adriamycin toxicity to resistant cells (MDR) in presence or absence of reversing agents, CHOC5. Type of test: cell-based, chinese hamster. The following applies: Cricetulus griseus; control, Adriamycin only, R.A. 0 μg/ml. The procedure:
as §1, §2, §3, §4

The next test deals with CHOC5 (MDR). Put plainly: LAMELLARINS TOXICITY TO RESISTANT (MDR) TUMOR CELL LINE CHOC5 (MTT). It counts as cell-based, chinese hamster. The following applies: Cricetulus griseus, 72 h; CHOC5 (MDR), MTT, three days; read-out: ACTIVITY: IC50. The protocol:
as §2, §5, §6, §3, §7

A further test has as its system CHOB1. Put plainly: LAMELLARINS TOXICITY TO SENSITIVE TUMOR CELL LINE CHOB1 (MTT). Type of test: cell-based, chinese hamster. The following applies: Cricetulus griseus, 72 h; CHOB1, sensitive, MTT, three days; read-out: ACTIVITY: IC50. The protocol:
as §2, §5, §6, §3, §7

A further test has as its system P-388. Nature of the test: LAMELLARINS TOXICITY TO SENSITIVE TUMOR CELL LINE P-388 (MTT). Type of test: cell-based. The following applies: Mus musculus, P388, 72 h; P-388, sensitive, MTT, three days; read-out: ACTIVITY: IC50. The procedure: as §2, §5, §6, §3, §7

Converted amounts (≈) assume the structure as drawn.

Consider `COc1cccc2c1C(=O)c1c(O)c3c(c(O)c1C2=O)C[C@@](O)(C(=O)CO)C[C@@H]3O[C@H]1C[C@H](N)[C@H](O)[C@H](C)O1` [Adriamycin, reference compound], for which the 50% inhibitory concentration (IC50) in the test on P-388/SCHABEL is 1.2 µg/mL; in the test with P-388/SCHABEL (MDR), 1.2 µg/mL (≈ 2.21 µM); with CHOC5, 3 µg/mL; with CHOC5 (MDR), 3 µg/mL (≈ 5.52 µM); with CHOB1 it was 0.15 µg/mL (≈ 0.276 µM); with P-388, 0.15 µg/mL (≈ 0.276 µM).
